Data from patent US20210038559A1, “CANNABINOIDS AND DERIVATIVES FOR PROMOTING IMMUNOGENICITY OF TUMOR AND INFECTED CELLS” (priority 2018, published 2021).

The compounds below were run on MHC-I expression by COLO 205 cells (assay: cells). Conditions: not given.
Format: cell-based, human
Protocol: A panel of synthetic cannabinoids (Cayman Chemical, #9002891) was tested for MHC class I-inducing capability in COLO 205 cells as described above. COLO 205 cells were treated with the compounds at a concentration of 35 μM and evaluated for cell surface MHC class I expression after 48 hours. Cells were harvested, stained with MHC-I mAb W6/32 (Thermo Fisher). MHC-I expression was determined by flow cytometry.
In the case of `CCCCCn1cc(C(=O)Cc2cccc(OC)c2)c2ccccc21` [Example 28, 2-(3-methoxyphenyl)-1-(1-pentyl-1H-indol-3-y1)-ethanone], the “Induction Fold” value is reported as 3.42 Fold. `O=C(Oc1cccc2cccnc12)c1cn(CC2CCCCC2)c2ccccc12` [Example 38, 1-(cyclohexylmethyl)-8-quinolinyl ester-1H-indole-3-carboxylic acid] was tested, and the “Induction Fold” value was 3.15 Fold. With `O=C(c1cccc2ccccc12)c1cn(CCN2CCOCC2)c2ccccc12` [Example 57, [1-[2-(4-morpholinyl)ethyl]-1H-indol-3-yl]-1-naphthalenyl-methanone] the “Induction Fold” value was 2.89 Fold.

Same assay, conditions: Homo sapiens, COLO 205, 48 h, MHC-I expression, COLO 205 cells, compounds at 35 μM, 48 hours, flow cytometry (W6/32); read-out: Induction Fold
`CCCCCn1cc(C(=O)c2ccccc2OC)c2ccccc21` [Example 20, (2-methoxyphenyl)(1-pentyl-1H-indol-3-yl)-methanone] gave a fold induction at 35 µM of 3.98. `COc1ccc(C(=O)c2cn(CCN3CCOCC3)c3ccccc23)c2ccccc12` [Example 21, (4-methoxy-1-naphthalenyl)[1-[2-(4-morpholinyl)ethyl]-1H-indol-3-yl]-methanone] was tested, and the fold induction at 35 µM was 3.85. In the case of `CCCCn1cc(C(=O)c2c(C)ccc3ccccc23)c2ccccc21` [Example 22, (1-butyl-1H-indol-3-yl)(2-methylnaphthalen-1-yl)methanone], the fold induction at 35 µM is reported as 3.84. `CN1CCCC[C@@H]1Cn1cc(C(=O)c2cc([N+](=O)[O-])ccc2I)c2ccccc21` [Example 23, (2-iodo-5-nitrophenyl)[1-[[(2R)-1-methyl-2-piperidinyl]methyl]-1H-indol-3-yl]methanone] was tested, and the fold induction at 35 µM was 3.64. Work on `CN1CCCCC(n2cc(C(=O)c3ccccc3I)c3ccccc32)C1` (stereo not shown) [Example 24, (2-iodophenyl)(1-(1-methylazepan-3-yl)-1H-indol-3-yl)methanone] yielded a fold induction at 35 µM of 3.64. For `CCCCCn1cc(C(=O)c2c(C)ccc3ccccc23)c2ccccc21` [Example 25, (2-methylnaphthalen-1-yl)(1-pentyl-1H-indol-3-yl)methanone], the fold induction at 35 µM was 3.6. `Cc1c(C(=O)c2ccccc2)c(N)c(-c2ccccc2)n1Cc1ccc(Cl)cc1` [Example 27, [4-amino-1-[(4-chlorophenyl)methyl]-2-methyl-5-phenyl-1H-pyrrol-3-yl]phenyl-methanone] gave a fold induction at 35 µM of 3.43. `NC(=O)[C@H](Cc1ccccc1)NC(=O)c1nn(CC2CCCCC2)c2ccccc12` [Example 29, N-[(1S)-2-amino-2-oxo-1-(phenylmethyl)ethyl]-1-(cyclohexylmethyl)-1H-Indazole-3-carboxamide] showed a fold induction at 35 µM of 3.41. With `O=C(Oc1ccc2ncccc2c1)c1cn(CCCCCF)c2ccccc12` [Example 30, quinolin-6-yl 1-(5-fluoropentyl)-1H-indole-3-carboxylate] the fold induction at 35 µM was 3.4. For `CCCCCn1cc(C(=O)c2ccccc2I)c2ccccc21` [Example 36, (2-iodophenyl)(1-pentyl-1H-indol-3-yl)-methanone], the fold induction at 35 µM was 3.3. `CCC(Cl)CCn1cc(C(=O)C2C(C)(C)C2(C)C)c2ccccc21` (stereo not shown) [Example 37] gave a fold induction at 35 µM of 3.3. With `CCCCCCC(C)(C)c1ccc([C@@H]2CCC[C@H](O)C2)c(O)c1` [Example 39, 2[(1R,3S)-3-hydroxycyclohexyl]-5-(2-methyloctan-2-yl)phenol] the fold induction at 35 µM was 3.14. For `O=C(c1cccc2ccccc12)c1nc2ccccc2n1CCCCCF` [Example 40, (1-(5-fluoropentyl)-1H-benzo[d]imidazol-2-yl)(naphthalen-1-yl)methanone], the fold induction at 35 µM was 3.14. `CC(C)Cn1cc(C(=O)c2cccc3ccccc23)c2ccccc21` [Example 41, (1-isobutyl-1H-indol-3-yl)(naphthalen-1-yl)methanone] showed a fold induction at 35 µM of 3.11. For `COc1cccc(CC(=O)c2cn(CCC3CCCCC3)c3ccccc23)c1` [Example 42, 1-(1-(2-cyclohexylethyl)-1H-indol-3-yl)-2-(3-methoxyphenyl)ethanone], the fold induction at 35 µM was 3.07. Work on `COc1cccc2c(C(=O)N[C@@H]3C(C)(C)[C@@H]4CC[C@@]3(C)C4)cn(CCN3CCOCC3)c12` [Example 43, 7-methoxy-1-[2-(4-morpholinyl)ethyl]-N-[(1S,2 S,4R)-1,3,3-trimethylbicyclo[2.2.1]hept-2-yl]-1H-indole-3-carboxamide] yielded a fold induction at 35 µM of 3.06. For `COc1ccc(CC(=O)c2cn(CCC3CCCCC3)c3ccccc23)cc1` [Example 44, 1-(1-(2-cyclohexylethyl)-1H-indol-3-yl)-2-(4-methoxyphenyl)ethanone], the fold induction at 35 µM was 3.03. Compound `CCC(F)CCn1cc(C(=O)Oc2cccc3cccnc23)c2ccccc21` (stereo not shown) [Example 45, quinolin-8-yl 1-(3-fluoropentyl)-1H-indole-3-carboxylate] has a fold induction at 35 µM of 3.02. With `O=C(Oc1ccc2cccnc2c1)c1cn(CC2CCCCC2)c2ccccc12` [Example 47, quinolin-7-yl 1-(cyclohexylmethyl)-1H-indole-3-carboxylate] the fold induction at 35 µM was 3.01. In the case of `CCC(CC)n1cc(C(=O)c2cccc3ccccc23)c2ccccc21` [Example 48, naphthalen-1-yl(1-(pentan-3-yl)-1H-indol-3-yl)methanone], the fold induction at 35 µM is reported as 3. `CC(C)(C)Cn1cc(C(=O)c2cccc3ccccc23)c2ccccc21` [Example 49, naphthalen-1-yl(1-neopentyl-1H-indol-3-yl)-methanone] showed a fold induction at 35 µM of 3. Work on `CCCCCn1cc(C(=O)c2cccc3cccc(Cl)c23)c2ccccc21` [Example 50, (8-chloronaphthalen-1-yl)(1-pentyl-1H-indol-3-yl)methanone] yielded a fold induction at 35 µM of 3. Work on `CC1(C)C(C(=O)c2cn(CCCCCF)c3ccccc23)C1(C)C` [Example 51, (1-(5-fluoropentyl)-1H-indol-3-yl)(2,2,3,3-tetramethylcyclopropyl)methanone] yielded a fold induction at 35 µM of 2.99. `CCCCCn1cc(C(=O)Oc2cncc3ccccc23)c2ccccc21` [Example 52, isoquinolin-4-yl 1-pentyl-1H-indole-3-carboxylate] showed a fold induction at 35 µM of 2.98. `CCCCCn1cc(C(=O)Oc2ccc3cnccc3c2)c2ccccc21` [Example 53, isoquinolin-6-yl 1-pentyl-1H-indole-3-carboxylate] was tested, and the fold induction at 35 µM was 2.97. `O=C(c1ccccc1I)c1cn(CCCCCF)c2ccccc12` [Example 54, [1-(5-fluoropentyl)-1H-indol-3-yl](2-iodophenyl)-methanone] was tested, and the fold induction at 35 µM was 2.93. Work on `N#CCCCCn1cc(C(=O)c2cccc3ccccc23)c2ccccc21` [Example 55, 3-(1-naphthalenylcarbonyl)-1H-Indole-1-pentanenitrile] yielded a fold induction at 35 µM of 2.92. Work on `CCCCCn1cc(C(=O)c2cccc(OC)c2)c2ccccc21` [Example 56, (3-methoxyphenyl)(1-pentyl-1H-indol-3-yl)methanone] yielded a fold induction at 35 µM of 2.9. `CCC(C)Cn1cc(C(=O)c2cccc3ccccc23)c2ccccc21` (stereo not shown) [Example 58, N-(2-methylbutyl)-3-(1-naphthoyl)-indole] showed a fold induction at 35 µM of 2.86.

Same assay, conditions: MHC-I expression, COLO 205 cells, compounds at 35 μM, 48 hours, flow cytometry (W6/32)
`COC(=O)[C@@H](NC(=O)c1cn(CC2CCCCC2)c2ccccc12)C(C)(C)C` [Example 31, N-[[1-(cyclohexylmethyl)-1H-indol-3-yl]carbonyl]-3-methyl-1-valine, methyl ester] was tested, and the “Induction Fold” value was 3.35 Fold. In the case of `COC(=O)[C@@H](NC(=O)c1nn(Cc2ccc(F)cc2)c2ccccc12)C(C)(C)C` [Example 46, N-[[1-[(4-fluorophenyl)methyl]-1H-indazol-3-yl]carbonyl]-3-methyl-1-valine, methyl ester], the “Induction Fold” value is reported as 3.02 Fold.
